This note sets out measurements from US7135472B2, “3-Heterocyclic benzylamide derivatives as potassium channel openers” (Bristol-Myers Squibb Company, priority 2002, dated 2006).

The target in one experiment is T1, mKCNQ2 channels (Mus musculus, UniProt Q9Z351).
T1 construct: expressed in transfected cells
Description: KCNQ whole-cell patch-clamp recordings, HEK 293 stable cell line expressing mKCNQ2 channels. Particulars: mKCNQ2 currents, HEK 293, whole-cell patch clamp; for Imax (%): Hill fit maximum current; for EC50: at −40 mV. The class given is cell-based. The method, then: Whole-cell patch-clamp recordings were made from an HEK 293 stable cell line expressing mKCNQ2 channels, maintained in culture for 1–2 days. Patch pipettes had initial resistances of 2.5–4 MΩ. Currents were recorded with an EPC-9 amplifier (HEKA, Lambrecht, Germany) controlled with software (Pulse, HEKA) run on a standard lab PC. Series resistance compensation was used during current recording, and set at 80%. The series resistance (R) and cell capacitance (C) were determined electronically by subtracting the capacitive currents at the onset and offset of a 5 mV voltage step. The cancellation of whole-cell capacitive transients was virtually complete in all cells. Analog current signals were low-pass filtered at 2.9 kHz using a four-pole Bessel filter −3 dB) and stored on a local network server computer at a sampling rate of […]. All recordings were performed at room temperature (20–22° C.). The pipette solution contained (mM): KCl, 150; CaCl2, 2.5; EGTA, 5; MgCl2, 1; HEPES, 10; pH to 7.3 with KOH, and Osmolality of 290–300 mOsm. The extracellular solution contained (mM): NaCl, 140; KCl, 2.5; CaCl2, 2.5; MgCl2, 1; glucose, 10; HEPES, 10; pH to 7.3 with NaOH, and Osmolality of 305–310 mOsm
Concentration response data were generated by measuring the difference in the steady-state amplitude of current in the presence of compound at the end of a 600 ms voltage-clamp step from a holding potential of −80 mV. The concentration-response data were fitted with Hill-type equations: I=Imax/(1+EC50/[A]^nH), where I is the steady-state current at a given concentration of agonist [A]; and Imax, EC50 and nH are parameters estimated from the curve fit. In some cases the concentration-response data were fitted with equations consisting of the sum of two Hill-type components. Current-voltage (I/V) relationships for agonist-evoked currents were obtained by performing 600 ms voltage steps (−110 mV to +40 mV) in the absence and presence of agonist.

Experiment [1] relates to peripheral mononeuropathy nerve injury-induced tactile allodynia. The experiment can be described thus: Chung model of neuropathic pain (Chung surgery and von Frey test). In kind it is in vivo, male Sprague Dawley rats. Conditions: i.v., rat, von Frey thresholds over 90 min post-drug, % MPE (Drug AUC) − % MPE (Vehicle AUC). On the procedure: To test agents for activity against peripheral mononeuropathy nerve injury-induced tactile allodynia, male Sprague Dawley rats (wt. 120–160 g) were surgically prepared with unilateral tight ligation of spinal nerves L5 and L6 following the method of Kim and Chung (Kim S. H., Chung J. M. (1992) Pain, September; 50(3):355–63). After 3–4 weeks recovery, paw withdrawal to light touch was assessed as described by Chaplan et al. (Chaplan S. R., et al., (1994) J. Neurosci Methods, July; 53(1):55–63). In brief, rats are placed in a plastic cage with a wire mesh bottom and allowed to acclimate for 15–30 minutes, until cage exploration and grooming stops. […] After acclimation, baseline von Frey thresholds were assessed for the injured hindpaw at −15 min. […] Following drug administration, von Frey thresholds are measured at 15, 30, 60 and 90 min. Data were analyzed by a 2-way repeated measures analysis of variance followed by Dunnett's test (p<0.05). […]
Reversal of neuropathic pain behavior may be expressed as a percentage (0–100%) of the maximum possible effect, over and above the vehicle effects. […]
For example, a compound which immediately reversed neuropathic pain behavior to normal levels, such that animals only responded to the highest von Frey filament (15 g), and maintained normal levels through out the post-drug testing period (90 min) would be calculated as Δ%MPE=100%.

Each structure is given as a SMILES string.

Usually EC50 stands for the midpoint of the concentration-response curve. Read a high EC50 as lower potency in that assay. `C[C@H](NC(=O)/C=C/c1ccccc1F)c1cccc(-n2cccn2)c1` [Example 4, (S)-3-(2-Fluoro-phenyl)-N-[1-(3-pyrazol-1-yl-phenyl)-ethyl]-acrylamide]: on mKCNQ2 channels, the “Imax (%)” value is on record as 1158% and the midpoint of the response, the EC50, lay at 0.123 µM. Further, the “AUC (Δ % MPE)” value in experiment [1] (3 mg/kg) is listed as 24 (3 mg/kg, i.v.) Δ % MPE.

With `C[C@H](NC(=O)CCCc1ccccc1)c1cccc(-c2cccnc2)c1` [Example 17, (S)-4-Phenyl-N-[1-(3-pyridin-3-yl-phenyl)-ethyl]-butyramide], on mKCNQ2 channels, the “Imax (%)” value is 172% and the EC50 came to 0.0007 µM.

As to `C[C@H](NC(=O)C=Cc1ccccc1)c1cccc(-n2cccn2)c1` [Example 31, (S)-3-Phenyl-N-[1-(3-pyrazol-1-yl-phenyl)-ethyl]-acrylamide], at mKCNQ2 channels, the “Imax (%)” value is listed as 3364% and the response was half-maximal at 1.24 µM (EC50).

For the molecule `NCC1(CC(=O)O)CCCCC1` [Gabapentin, gabapentin, reference compound], in experiment [1] (100 mg/kg), the “AUC (Δ % MPE)” value is on record as 50 (100 mg/kg, i.v.) Δ % MPE.
